Earlier results, collected in patent publication US6132722A, “Recombinant antibody-enzyme fusion proteins” (Bristol-Myers Squibb Company, priority 1998, dated 2000).

System: 3677 melanoma xenografts
Details: drug alone, Kerr et al. 1995

SMILES: COc1cccc2c1C(=O)c1c(O)c3c(c(O)c1C2=O)C[C@@](O)(C(=O)CO)C[C@@H]3O[C@H]1C[C@H](N)[C@H](O)[C@H](C)O1 [doxorubicin]
- response of the 3677 tumor model to treatment: resistant
